Patent publication US20260049076A1, “Tertiary Amine Substituted Bicyclic Compounds Useful as T Cell Activators” (BRISTOL-MYERS SQUIBB COMPANY, priority 2022, published 2026)

What was measured:
human DGKζ = target: T1, human DGKζ (Homo sapiens, UniProt Q13574); assay: In vitro DGK inhibition assay, DGKζ liposome (LIPGLO) assay; assay type: biochemical; settings: read-out: Enzyme Inhibition DGKzeta IC50
T1 construct: TVMV protease cleavage site (C); Hexa-His (C); made in house; host or cells: Sf9 insect cells (baculovirus)
T1 sequence (Q13574 with tags, fused parts or gaps isoform Q13574-4): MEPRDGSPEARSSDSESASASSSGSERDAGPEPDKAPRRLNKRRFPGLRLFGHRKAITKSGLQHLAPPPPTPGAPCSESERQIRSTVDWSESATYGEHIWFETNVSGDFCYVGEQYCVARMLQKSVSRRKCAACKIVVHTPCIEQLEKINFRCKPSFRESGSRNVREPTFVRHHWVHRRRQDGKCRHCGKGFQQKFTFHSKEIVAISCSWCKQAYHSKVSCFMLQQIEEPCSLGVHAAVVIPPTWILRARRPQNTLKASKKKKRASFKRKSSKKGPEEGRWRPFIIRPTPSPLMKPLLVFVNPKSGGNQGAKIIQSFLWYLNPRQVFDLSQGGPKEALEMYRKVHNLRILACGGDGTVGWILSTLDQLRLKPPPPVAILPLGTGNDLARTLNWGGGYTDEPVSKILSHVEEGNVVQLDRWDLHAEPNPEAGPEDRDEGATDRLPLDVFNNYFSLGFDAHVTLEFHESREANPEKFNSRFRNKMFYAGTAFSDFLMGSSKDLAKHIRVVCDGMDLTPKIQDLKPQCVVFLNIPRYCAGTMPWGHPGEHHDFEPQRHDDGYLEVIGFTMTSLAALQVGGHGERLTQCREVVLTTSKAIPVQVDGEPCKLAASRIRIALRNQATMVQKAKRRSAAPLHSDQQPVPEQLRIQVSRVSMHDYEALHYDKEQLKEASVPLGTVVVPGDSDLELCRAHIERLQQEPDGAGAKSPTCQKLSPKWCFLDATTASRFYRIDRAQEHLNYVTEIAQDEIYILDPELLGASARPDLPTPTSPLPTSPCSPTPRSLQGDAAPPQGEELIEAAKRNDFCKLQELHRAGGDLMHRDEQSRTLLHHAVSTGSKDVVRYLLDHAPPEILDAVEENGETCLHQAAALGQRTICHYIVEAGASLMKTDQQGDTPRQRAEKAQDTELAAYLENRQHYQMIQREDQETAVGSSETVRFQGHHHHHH
Experimental: (§1) The DGKα and DGKζ reactions were performed using either extruded liposome (DGKα and DGKζ LIPGLO assays) or detergent/lipid micelle substrate (DGKα and DGKζ assays). The reactions were carried out in 50 mM MOPS pH 7.5, 100 mM NaCl, 10 mM MgCl2, 1 μM CaCl2, and 1 mM DTT (assay buffer). The reactions using a detergent/lipid micelle substrate also contained 50 mM octyl B-D-glucopyranoside. The lipid substrate concentrations were 11 mM PS and 1 mM DAG for the detergent/lipid micelle reactions. The lipid substrate concentrations were 2 mM PS, 0.25 mM DAG, and 2.75 mM PC for the extruded liposome reactions (5 mM total lipid). The reactions were carried out in 150 μM ATP The enzyme concentrations for the DGKα and DGKζ were 5 nM
(§2) The compound inhibition studies were carried out as follows: 25 nL (ADPGLO assay) or 50 nL (LIPGLO assay) droplets of each test compound (top concentration 10 mM with 11 point, 3-fold dilution series for each compound) solubilized in DMSO were transferred to wells of a white 1536 well plate (Corning 3725). A 5 mL enzyme/lipid substrate solution at 2× final reaction concentration was prepared by combining 2.5 mL 4× enzyme solution (20 nM DGKα, or DGKζ (prepared as described below) in assay buffer) and 2.5 mL of either 4× liposome or 4× detergent/lipid micelle solution (compositions described below) and incubated at room temperature for 10 minutes. Next, 1 μL 2× enzyme/lipid substrate solution was added to wells containing the test compound and reactions were initiated with the addition of 1 μL 300 uM ATP. The reactions were allowed to proceed for 2 hr (ADPGLO assay) or 1 hr (LIPGLO assay), after which 2 μL Glo Reagent (Promega V9101) was added and incubated for 40 minutes. Next, 4 μL Kinase Detection Reagent was added and incubated for 30 minutes. Luminescence was recorded using an EnVision microplate reader. […] The compounds were evaluated at 11 concentrations to determine IC50.
(§3) The lipid composition was 5 mol % DAG (Avanti 8008110), 40 mol % PS (Avanti 840035P), and 55 mol % PC (Avanti 850457) at a total lipid concentration of 7-8 mg/mL for the liposome solution. The PC, DAG, and PS were dissolved in chloroform, combined, and dried in vacuo to a thin film. The lipids were hydrated to 20 mM in 50 mM MOPS pH 7.5, 100 mM NaCl, 5 mM MgCl2, and were freeze-thawed five times. The lipid suspension was extruded through a 100 nm polycarbonate filter 10-12 times. […] The liposome preparation was stored at 4° C. for as long as four weeks.
as §3, with “15.2” for “7-8”, “the 4×” for “the”, “eleven” for “10-12”
(§4) Human DGK-alpha-TVMV-His-pFBgate and human DGK-zeta-transcript variant-2-TVMV-His-pFBgate baculovirus samples were generated using the Bac-to-Bac baculovirus expression system (Invitrogen) according to the manufacturer's protocol. […] Baculovirus amplification was achieved using infected Sf9 cells at 1:1500 virus/cell ratios, and grown for 65 hours at 27° C. post-transfection.
(§5) The expression scale up for each protein was carried out in the Cellbag 50L WAVE-Bioreactor System 20/50 from GE Healthcare Bioscience. 12 L of 2×10^6 cells/mL Sf9 cells (Expression System, Davis, CA) grown in ESF921 insect medium (Expression System) were infected with virus stock at 1:200 virus/cell ratios, and grown for 66-68 hours at 27° C. post-infection.

human DGKα = target: T2, human DGKα (Homo sapiens, UniProt P23743); assay: In vitro DGK inhibition assay, DGKα liposome (LIPGLO) assay; assay type: biochemical; settings: read-out: Enzyme Inhibition DGKalpha IC50
T2 construct: TVMV protease cleavage site (C); Hexa-His (C); made in house; host or cells: Sf9 insect cells (baculovirus)
T2 sequence (P23743 with tags, fused parts or gaps): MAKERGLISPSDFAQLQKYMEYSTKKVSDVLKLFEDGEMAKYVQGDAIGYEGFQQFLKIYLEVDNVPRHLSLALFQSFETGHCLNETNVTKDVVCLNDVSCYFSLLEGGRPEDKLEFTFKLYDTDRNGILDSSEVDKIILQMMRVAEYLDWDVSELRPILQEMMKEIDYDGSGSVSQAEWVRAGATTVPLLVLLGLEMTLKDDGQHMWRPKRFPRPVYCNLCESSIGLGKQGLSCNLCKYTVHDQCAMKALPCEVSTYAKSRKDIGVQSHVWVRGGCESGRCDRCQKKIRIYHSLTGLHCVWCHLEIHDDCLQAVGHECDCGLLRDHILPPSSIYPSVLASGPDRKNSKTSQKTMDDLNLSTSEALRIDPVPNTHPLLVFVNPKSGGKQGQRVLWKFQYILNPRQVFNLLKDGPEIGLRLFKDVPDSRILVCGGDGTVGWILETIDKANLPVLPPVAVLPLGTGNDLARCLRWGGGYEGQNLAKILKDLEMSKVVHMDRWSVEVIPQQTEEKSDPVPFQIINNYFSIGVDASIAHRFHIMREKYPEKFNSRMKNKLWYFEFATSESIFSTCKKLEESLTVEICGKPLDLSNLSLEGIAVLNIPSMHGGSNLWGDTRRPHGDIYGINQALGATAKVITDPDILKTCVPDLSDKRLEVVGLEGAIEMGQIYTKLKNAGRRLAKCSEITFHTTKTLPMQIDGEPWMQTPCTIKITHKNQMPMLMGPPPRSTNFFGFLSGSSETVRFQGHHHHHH
Experimental: as §1, §2, §3
as §3, with “15.2” for “7-8”, “the 4×” for “the”, “eleven” for “10-12”
as §4, §5

| IC50 (human DGKζ) [µM] | IC50 (human DGKα) [µM] | SMILES |
| --- | --- | --- |
| 7.6 | 18 | Cn1c(=O)cc(N(CC2CC2)c2ccc(-c3cccc(C(N)=O)c3)cc2)c2nc(C#N)ccc21 [Example 84, 4′-((6-cyano-1-methyl-2-oxo-1,2-dihydro-1,5-naphthyridin-4-yl)(cyclopropylmethyl)amino)-[1,1′-biphenyl]-3-carboxamide] |
| 3.5 | 0.18 | Cn1c(=O)cc(N(CC2CC2)c2cccc(-c3ccc(CNS(C)(=O)=O)cc3)c2)c2nc(C#N)ccc21 [Example 102, N-((3′-((6-cyano-1-methyl-2-oxo-1,2-dihydro-1,5-naphthyridin-4-yl)(cyclopropylmethyl)amino)-[1,1′-biphenyl]-4-yl)methyl)methanesulfonamide] |
| 2.7 | 0.29 | Cc1ccc2c(n1)c(N(C)C1CCCCC1)c(C#N)c(=O)n2C [Example 13, 4-[cyclohexyl(methyl)amino]-1,6-dimethyl-2-oxo-1,2-dihydro-1,5-naphthyridine-3-carbonitrile] |
| 31 | 1.8 | Cn1c(=O)cc(N(CC2CC2)c2cccc(-c3cccc(O)c3)c2)c2nc(C#N)ccc21 [Example 99, 8-((cyclopropylmethyl)(3′-hydroxy-[1,1′-biphenyl]-3-yl)amino)-5-methyl-6-oxo-5,6-dihydro-1,5-naphthyridine-2-carbonitrile] |
| 1.3 | 3.9 | Cn1c(=O)cc(N(CC2CC2)c2ccc(-n3cccc3)cc2)c2nc(C#N)ccc21 [Example 54, 8-((4-(1H-pyrrol-1-yl)phenyl) (cyclopropylmethyl)amino)-5-methyl-6-oxo-5,6-dihydro-1,5-naphthyridine-2-carbonitrile] |
| 84 |  | COc1ccc2c(n1)c(N(C)C1CCCCC1)c(C#N)c(=O)n2C [Example 12, 4-[cyclohexyl(methyl)amino]-6-methoxy-1-methyl-2-oxo-1,2-dihydro-1,5-naphthyridine-3-carbonitrile] |
| 2 | 0.022 | CN(C)c1ccc(-c2cccc(N(CC3CC3)c3cc(=O)n(C)c4ccc(C#N)nc34)c2)cc1 [Example 107, 8-((cyclopropylmethyl)(4′-(dimethylamino)-[1,1′-biphenyl]-3-yl)amino)-5-methyl-6-oxo-5,6-dihydro-1,5-naphthyridine-2-carbonitrile] |
| 4 |  | CN(c1c(C#N)c(=O)n(C)c2ccc(C#N)nc12)C1CCCCC1 [Example 10, 8-[cyclohexyl(methyl)amino]-5-methyl-6-oxo-5,6-dihydro-1,5-naphthyridine-2,7-dicarbonitrile] |
| 3.6 | 2 | C#CCn1c(=O)c(C#N)c(N(C)C2CCCCC2)c2nc(C#N)ccc21 [Example 17, 8-[cyclohexyl(methyl)amino]-6-oxo-5-(prop-2-yn-1-yl)-5,6-dihydro-1,5-naphthyridine-2,7-dicarbonitrile] |
| 4 | 5.6 | Cn1c(=O)cc(N(CC2CC2)c2ccc(-c3cccc(CNS(C)(=O)=O)c3)cc2)c2nc(C#N)ccc21 [Example 85, N-((4′-((6-cyano-1-methyl-2-oxo-1,2-dihydro-1,5-naphthyridin-4-yl) (cyclopropylmethyl)amino)-[1,1′-biphenyl]-3-yl)methyl)methanesulfonamide] |
| 9.1 | 2.5 | Cn1c(=O)cc(N(CC2CC2)c2cccc(-c3cccc(Cl)c3)c2)c2nc(C#N)ccc21 [Example 94, 8-((3′-chloro-[1,1′-biphenyl]-3-yl) (cyclopropylmethyl)amino)-5-methyl-6-oxo-5,6-dihydro-1,5-naphthyridine-2-carbonitrile] |
| 3 | 8.4 | Cn1c(=O)cc(N(CC2CC2)c2ccc(OC(F)(F)F)cc2)c2nc(C#N)ccc21 [Example 41, 8-((cyclopropylmethyl)(4-(trifluoromethoxy)phenyl)amino)-5-methyl-6-oxo-5,6-dihydro-1,5-naphthyridine-2-carbonitrile] |
| 4.1 | 6.1 | CN(c1ccc(C(F)(F)F)cc1)c1cc(=O)n(C)c2ccc(C#N)nc12 [Example 33, 5-methyl-8-(methyl(4-(trifluoromethyl)phenyl)amino)-6-oxo-5,6-dihydro-1,5-naphthyridine-2-carbonitrile] |
| 5 | 12 | COc1cc(-c2ccc(N(CC3CC3)c3cc(=O)n(C)c4ccc(C#N)nc34)cc2)ccn1 [Example 90, 8-((cyclopropylmethyl)(4-(2-methoxypyridin-4-yl)phenyl)amino)-5-methyl-6-oxo-5,6-dihydro-1,5-naphthyridine-2-carbonitrile] |
| 0.99 |  | Cn1c(=O)cc(N(CC2CC2)c2ccc(C3CC3)cn2)c2nc(C#N)ccc21 [Example 46, 8-((cyclopropylmethyl)(5-cyclopropylpyridin-2-yl)amino)-5-methyl-6-oxo-5,6-dihydro-1,5-naphthyridine-2-carbonitrile] |
| 7.1 |  | CC(C1CC1)N(C)c1c(C#N)c(=O)n(C)c2ccc(Br)nc12 (racemic) [Example 9, 6-bromo-4-((1-cyclopropylethyl)(methyl)amino)-1-methyl-2-oxo-1,2-dihydro-1,5-naphthyridine-3-carbonitrile] |
| 12 |  | C#CCn1c(=O)c(C#N)c(N(C)C2CCCCC2)c2nc(Br)ccc21 [Example 16, 6-bromo-4-[cyclohexyl(methyl)amino]-2-oxo-1-(prop-2-yn-1-yl)-1,2-dihydro-1,5-naphthyridine-3-carbonitrile] |
| > 125 |  | CN(c1cccc(C#N)c1)c1cc(=O)n(C)c2ccc(C#N)nc12 [Example 21, 8-((3-cyanophenyl)(methyl)amino)-5-methyl-6-oxo-5,6-dihydro-1,5-naphthyridine-2-carbonitrile] |
| 7.1 |  | CC(C1CC1)N(C)c1c(C#N)c(=O)n(C)c2ccc(CC#N)nc12 (stereo not drawn) [Example 15, 6-(cyanomethyl)-4-[(1-cyclopropylethyl)(methyl)amino]-1-methyl-2-oxo-1,2-dihydro-1,5-naphthyridine-3-carbonitrile] |
| 21 |  | CN(c1c(C#N)c(=O)n(C)c2ccc(Br)nc12)C1CCCCC1 [Example 7, 6-bromo-4-[cyclohexyl(methyl)amino]-1-methyl-2-oxo-1,2-dihydro-1,5-naphthyridine-3-carbonitrile] |
| 12 |  | CN(c1cc(=O)n(C)c2ccc(C#N)nc12)C1CCCCC1 [Example 19, 8-(cyclohexyl(methyl)amino)-5-methyl-6-oxo-5,6-dihydro-1,5-naphthyridine-2-carbonitrile] |
| 31 |  | CC1CCC(N(C)c2c(C#N)c(=O)n(C)c3ccc(Br)nc23)CC1 (stereo not drawn) [Example 8, 6-bromo-1-methyl-4-(methyl(4-methylcyclohexyl)amino)-2-oxo-1,2-dihydro-1,5-naphthyridine-3-carbonitrile] |
| 29 |  | Cc1ccc2c(n1)c(N(C)C(C)C1CC1)c(C#N)c(=O)n2C (stereo not drawn) [Example 14, 4-[(1-cyclopropylethyl)(methyl)amino]-1,6-dimethyl-2-oxo-1,2-dihydro-1,5-naphthyridine-3-carbonitrile] |
| 7.3 |  | CC(C1CC1)N(C)c1c(C#N)c(=O)n(C)c2ccc(C#N)nc12 (stereo not drawn) [Example 11, 8-[(1-cyclopropylethyl)(methyl)amino]-5-methyl-6-oxo-5,6-dihydro-1,5-naphthyridine-2,7-dicarbonitrile] |
